Peptide text beside a SMILES is read from it.
Molecular target: T1, H2-K^d (Mus musculus, UniProt P01902)
T1 construct: expressed in transfected cells; host or cells: RMA/S lymphoma cell line expressing H2-K^d
T1 sequence (P01902 22-368): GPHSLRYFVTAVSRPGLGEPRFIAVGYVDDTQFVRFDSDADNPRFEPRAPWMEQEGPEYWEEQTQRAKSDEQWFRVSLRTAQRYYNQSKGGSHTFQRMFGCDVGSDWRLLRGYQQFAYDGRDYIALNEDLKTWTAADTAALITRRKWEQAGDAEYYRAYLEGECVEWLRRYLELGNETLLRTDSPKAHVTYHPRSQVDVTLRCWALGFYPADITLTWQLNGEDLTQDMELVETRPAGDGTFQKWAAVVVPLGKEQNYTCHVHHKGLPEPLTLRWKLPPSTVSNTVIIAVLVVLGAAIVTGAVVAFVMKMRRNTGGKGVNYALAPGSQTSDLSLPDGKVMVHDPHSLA
T1 sequence (P01887 21-119 partner): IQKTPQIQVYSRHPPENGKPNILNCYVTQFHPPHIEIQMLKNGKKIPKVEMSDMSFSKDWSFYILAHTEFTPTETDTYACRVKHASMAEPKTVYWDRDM
Assay: MHC binding assay (RMA/S cells expressing H2-K^d)
Parameters: species or system murine
Details: H2-K^d stabilization, read-out: apparent Kd
Protocol: RMA/S cells expressing H2-K^d were used to test MHC binding as described.
The affinity of SYQKSINNI for H2-K^d was determined using an RMA/S lymphoma cell line expressing H2-Kd as previously described.
Fig 4 The PyMDH epitope binds to murine H2-K^d. RMA/S cells expressing H2-K^d were incubated with peptides for PyCSP (squares), PyMDH (circles) or non-specific peptide. PyCSP and PyMDH peptides stabilized H2-K^d, indicative of specific MHC binding. Error bars indicate the 95% confidence interval.

CC[C@H](C)[C@H](NC(=O)[C@H](CCC(N)=O)NC(=O)[C@H](CCC(=O)O)NC(=O)[C@H](C)NC(=O)[C@H](CO)NC(=O)[C@@H]1CCCN1C(=O)[C@@H](NC(=O)[C@H](Cc1ccc(O)cc1)NC(=O)[C@@H](N)CO)C(C)C)C(=O)O [PyCSP peptide] (H-SYVPSAEQI-OH)
Kd: 9.6 nM

CC[C@H](C)[C@H](NC(=O)[C@H](CC(N)=O)NC(=O)[C@H](CC(N)=O)NC(=O)[C@@H](NC(=O)[C@H](CO)NC(=O)[C@H](CCCCN)NC(=O)[C@H](CCC(N)=O)NC(=O)[C@H](Cc1ccc(O)cc1)NC(=O)[C@@H](N)CO)[C@@H](C)CC)C(=O)O [PyMDH peptide] (H-SYQKSINNI-OH)
Kd: 11.6 nM
